Experimental data from the supplement of paper PMC10307832.

Tests used:
Experiment in all cases: relative viability (nuclei count vs DMSO), 5 days (fraction); higher = more cells survive
[1] = compound: C1=CC2=NC=CN=C2C=C1/C=C/3\C(=O)NC(=O)S3 + Nc1ncn([C@H]2C[C@H](O)[C@@H](CO)O2)c(=O)n1 [Decitabine] (partner 2 µM)
Outline: (§1)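 One day after seeding in 1536-well plates, lung cancer cell lines were dosed by pin tool. Dosing was either single-drug or a fixed anchor-drug dose plus five library-drug doses (not always all listed) in √10 steps. After 5 days, nuclei were stained in one fix-and-stain step and counted on 4× images, and relative viability is the nuclei count of treated wells over that of vehicle wells, given as the median of duplicate plates.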

[2] = compound: C1=CC2=NC=CN=C2C=C1/C=C/3\C(=O)NC(=O)S3 + CCNC(=O)c1noc(-c2cc(C(C)C)c(O)cc2O)c1-c1ccc(CN2CCOCC2)cc1 [Luminespib] (partner 0.01 µM)
Outline: as §1

[3] = compound: CCN1CCN(c2ccc(Nc3cc(N(C)C(=O)Nc4c(Cl)c(OC)cc(OC)c4Cl)ncn3)cc2)CC1 [BGJ398] + C[C@]1(O)C[C@@H](c2nc(-c3ccc4ccc(-c5ccccc5)nc4c3)c3c(N)nccn32)C1 [Linsitinib] (partner 1 µM)
Outline: as §1

[4] = compound: C1=CC2=NC=CN=C2C=C1/C=C/3\C(=O)NC(=O)S3 + N=C(N)NC(=N)NCCc1ccccc1 [Phenformin] (partner 250 µM)
Outline: as §1

Cell Line | relative viability ([1]; first compound 0.02 µM) | relative viability ([1]; first compound 0.06325 µM) | relative viability ([1]; first compound 0.2 µM) | relative viability ([1]; first compound 0.6325 µM) | relative viability ([1]; first compound 2 µM) | relative viability ([2]; first compound 0.02 µM) | relative viability ([2]; first compound 0.06325 µM) | relative viability ([2]; first compound 0.2 µM) | relative viability ([2]; first compound 0.6325 µM) | relative viability ([2]; first compound 2 µM) | relative viability ([3]; first compound 0.01 µM) | relative viability ([3]; first compound 0.03162 µM) | relative viability ([3]; first compound 0.1 µM) | relative viability ([3]; first compound 0.3162 µM) | relative viability ([3]; first compound 1 µM) | relative viability ([4]; first compound 0.02 µM) | relative viability ([4]; first compound 0.06325 µM) | relative viability ([4]; first compound 0.2 µM) | relative viability ([4]; first compound 0.6325 µM) | relative viability ([4]; first compound 2 µM)
NCI-H1993 | 0.527 | 0.594 | 0.737 | 0.557 | 0.507 | 0.712 | 0.863 | 0.854 | 0.798 | 0.557 | 0.764 | 0.791 | 0.752 | 0.894 | 0.729 | 0.492 | 0.529 | 0.513 | 0.557 | 0.599
NCI-H1734 | 0.483 |  | 0.517 | 0.501 | 0.489 | 0.245 | 0.217 | 0.182 | 0.194 | 0.257 | 0.816 | 0.873 | 0.907 | 0.864 | 0.917 | 0.392 | 0.35 | 0.384 | 0.343 | 0.279
HOP-62 | 0.188 | 0.278 | 0.215 | 0.191 | 0.254 | 0.725 | 0.831 | 0.904 | 0.9 | 0.922 | 1 | 1.11 | 1.02 | 0.876 | 0.946 | 0.549 | 0.643 | 0.695 | 0.646 | 0.622
LOU-NH91 | 0.797 | 0.849 | 0.83 | 0.782 | 0.756 | 0.363 | 0.344 | 0.334 | 0.346 | 0.314 | 0.903 | 0.539 | 0.933 | 0.557 | 0.911 | 0.712 | 0.72 | 0.569 | 0.703 | 0.564
PC-14 | 0.242 | 0.272 | 0.237 | 0.204 | 0.275 | 0.145 | 0.19 | 0.195 | 0.193 | 0.152 | 0.902 | 1.05 | 0.902 | 1 | 1.06 | 0.718 | 0.719 | 0.641 | 0.649 | 0.452
NCI-H1437 | 0.548 | 0.546 | 0.588 | 0.536 | 0.617 | 1.09 | 1.14 | 1.05 | 1.08 | 1.12 | 0.999 | 0.995 | 1.04 | 1.05 | 1.06 | 0.258 | 0.286 | 0.369 | 0.274 | 0.233
NCI-H460 | 0.524 | 0.389 | 0.515 | 0.459 | 0.534 | 0.0317 | 0.0415 | 0.0283 | 0.0303 | 0.0362 | 0.714 | 0.838 | 0.916 | 0.895 | 0.92 | 0.477 | 0.619 | 0.536 | 0.516 | 0.468
NCI-H1666 | 0.717 | 0.709 | 0.775 | 0.691 | 0.672 | 1.04 | 0.994 | 1.05 | 0.965 | 1.03 | 0.708 | 0.812 | 0.816 | 0.835 | 0.709 | 0.36 | 0.481 | 0.578 | 0.541 | 0.548
